In patent publication US8809389B2, “Substituted alkynyl phenoxy compounds as new synergists in pesticidal compositions” (Endura S.p.A., priority 2009, dated 2014):
Several values for one entry are separate records, joined by “and”; a condition that tells them apart may be missing. Equal entries are not always repeated.

What was measured:
[1] = biological target: T1, purified resistance-associated esterase (E4) (Myzus persicae, UniProt P35501); test: Esterase interference assay (indirect determination of esterase inhibition); type: biochemical; details: for Esterase protection (%) after pre-incubation with compound: no esterase = 0%, uninhibited E4 = 100%; for Reduction of esterase protection, comparison in words: E4 esterase interference assay, Examples 13 and 16
T1 construct: 5 g of aphids (stored at −20° C.) were homogenised in 0.02 M phosphate buffer pH 7.0; from tissue; host or cells: whole Myzus persicae aphids, clone 794JZ; homogenate purified over G-25 and DEAE Sepharose Fast Flow
T1 sequence (P35501 24-552): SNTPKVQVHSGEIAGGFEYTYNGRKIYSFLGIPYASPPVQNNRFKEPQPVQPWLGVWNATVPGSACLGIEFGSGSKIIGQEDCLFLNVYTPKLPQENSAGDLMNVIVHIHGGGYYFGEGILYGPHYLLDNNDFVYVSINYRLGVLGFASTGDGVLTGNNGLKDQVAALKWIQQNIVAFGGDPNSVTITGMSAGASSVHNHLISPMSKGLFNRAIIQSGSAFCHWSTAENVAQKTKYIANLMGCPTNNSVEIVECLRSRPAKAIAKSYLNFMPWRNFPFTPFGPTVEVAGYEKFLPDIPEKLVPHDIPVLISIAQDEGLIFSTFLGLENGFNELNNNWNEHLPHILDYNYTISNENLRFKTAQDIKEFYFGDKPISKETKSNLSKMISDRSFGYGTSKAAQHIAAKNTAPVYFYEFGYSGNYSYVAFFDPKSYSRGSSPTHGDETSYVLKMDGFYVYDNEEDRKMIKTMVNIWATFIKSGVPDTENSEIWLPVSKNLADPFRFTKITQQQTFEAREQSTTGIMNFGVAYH
Excerpt: Measuring the in vitro inhibition is not straight forward, as synergists may bind to a site other than the active site.
The esterase used was the well-characterised resistance associated esterase purified from M. persicae, E4, (aphid clone: 794JZ) as per Devonshire (1977) with some modifications(Devonshire A L, The properties of a carboxylesterase from the peach-potato aphid, Myzus persicae (Sulz.) and its role in conferring insecticide resistance. Biochem J 167: 675-683 (1977)). Briefly, 5 g of aphids (stored at −20° C.) were homogenised in 0.02 M phosphate buffer pH 7.0 and centrifuged at 20 000 g for 10 min. The supernatant was passed through a G-25 column using 0.02M Tris/HCl, pH 8.5 buffer. Unretarded fractions containing esterase activity were further chromatographed through DEAF Sepharose Fast Flow (Amersham Biosciences) and eluted with a linear 0-0.35 M NaCl gradient in 500 ml of Tris/HCl as above. Fractions containing carboxylesterase activity in the form of E4 were concentrated, desalted, and buffer exchanged to 0.02 M phosphate pH 7.0 for storage.
Interactions of the purified resistance-associated esterase (E4) with Compound of Example 2, Compound of Example 3, Compound of Example 4, Compound of Example 9 and Compound of Example 11 were performed using the ‘esterase interference assay’, as described by Khot et al., with some modifications. Devonshire A L, The properties of a carboxylesterase from the peach-potato aphid, Myzus persicae (Sulz.) and its role in conferring insecticide resistance. Biochem J 167: 675-683 (1977)). Briefly, stock solutions of novel synergists (3 mM in acetone) were pre-incubated with pure E4, to give a final concentration of 0.03 mM, for 16 h at 4° C. Aliquots (15 μl ) of E4, E4+Compound of Example 2, E4+Compound of Example 3, E4+Compound of Example 4, E4+Compound of Example 9 and E4+Compound of Example 11 were incubated for 1 h with 60 μl of serial dilutions of azamethiphos in 0.02M phosphate buffer, pH 7, in separate wells of a NUNC microplate. Aliquots (25 p1) of house fly head homogenate (source of AChE) were added to each well and incubated for 15 minutes at room temperature. E4 in acetone and buffer only served as the positive and the negative controls respectively. AChE activity was measured at 405 nm using a Tmax kinetic microplate reader (Molecular Devices, Menlo Park, Calif.). Readings were taken automatically for 10 min at 10 s intervals. The rate (mOD min^−1) was calculated by the integrated software, Softmax Pro 4.6. All treatments were performed in triplicate.
No added esterase is giving 0% esterase protection and uninhibited esterase (E4) is giving 100% protection.
The materials and procedure as stated in Example 13, paragraphs 13.1, 13.1.2, 13.1.2.1 and 13.1.2.2. have been used and the following results have been obtained: […]

[2] = test system: Myzus persicae; test: Topical application bioassay on aphid clones: imidacloprid with or without synergist pre-treatment; details: for RF, resistance factor (LC50 resistant / LC50 susceptible population): imidacloprid; for LC50 (lethal concentration of imidacloprid to kill 50% of the population): imidacloprid alone, topical, scored 72 h
Procedure: Aphid clones were reared on Chinese cabbage (Brassica rapa L. var. Pekinensis c.v Wong Bok) (Brassicaceae) leaves held in small plastic box-cages maintained at 18±2° C. with a 16:8 h light:dark photoperiod (Blackman R L, Variation in the photoperiodic response within natural populations of Myzus persicae (Sulzer). Bull Ent Res 60: 533-546 (1971)).
Clone 4106A is a laboratory insecticide-susceptible standard2 . […] Both aphid clones have been established from single parthenogenetic M. persicae females (Foster S P, Denholm I, Thompson R, Poppy G M, Powell W, Reduced response of insecticide-resistant aphids and attraction of parasitoids to alarm pheromone; a potential fitness trade-off. Bull Ent Res 95: 37-46 (2005)).
12.1.2 Topical Application Bioassay with 5191A Aphid Clone Young apterae were transferred to the abaxial surface of Chinese cabbage leaf discs (10 adults per leaf disc, at least 3 replicates per concentration) held on 1% agar in plastic containers (4 cm in diameter). The upper edge of each container was coated with Fluon (Whitford Plastics, UK) to prevent subsequent aphid escape from the leaf surface. After allowing 2 h for the aphids to settle, each was dosed with 0.25 μl of either 1 g L^−1 Compound of Example 3 dissolved in acetone or acetone only. After 4 h aphids were further treated with 0.25 μl imidacloprid in acetone (96% AR) using a
Burkard microapplicator (Burkard, Rickmansworth, UK). Controls were treated with acetone only. Treated aphids were stored at 18±2° C. and 16 h light: 8 h dark photoperiod. All bioassays were scored at the endpoint of 72 h after treatment. Adults incapable of co-ordinated movement (after gentle touching with a paint brush if necessary) were scored as dead. All bioassays were completed in triplicate.

[3] = test system: pollen beetle, Meligethes aeneus; test: Discriminating dose bioassay: α-cypermethrin in mixture with synergist; type: in vivo; details: Brassicogethes aeneus; for mortality at 0.3 ppm: 0.3 ppm α-cypermethrin alone
Procedure: (§1) Two pyrethroid resistant populations originating from two different areas in Poland ‘Rogalin'and lebork’ were collected in July 2008. A putative susceptible population, UK population, was also collected in July 2008 in Hertfordshire, UK. All populations were collected from oilseed rape contained adults only and were kept at room temperature before assays were performed.
Bioassays incorporating the compounds (Compound of Example 2 and Compound of Example 3) dissolved in acetone, were carried out using a diagnostic concentration of α-cypermethrin derived from the above full dose response bioassays in a mixture of 0.01 g L^−1 of the compounds. The concentration of α-cypermethrin used for the discriminating dose bioassays was 0.3 ppm α-cypermethrin for the two polish populations, Rogalin and Lebork and 0.03 ppm α-cypermethrin for UK population. Vials treated with the compounds only, dissolved in acetone and acetone only were used as controls. Ten to 15 replicates were used for each treatment depending on insect numbers within the population. Compounds concentrations chosen conferred no mortality in preliminary bioassays.
(§2) Treated vials including the pollen beetles were stored in constant environment facilities at 18±2° C. and 16L: 8D. All bioassays were scored at an endpoint of 24 h after exposure to the insecticide. Insects incapable of coordinated movement (after gentle touching with a pencil brush if necessary) were scored as dead.

[4] = test system: pollen beetle, Meligethes aeneus; test: Full dose response bioassay (α-cypermethrin), coated glass vials, IRAC method no 11; type: in vivo; details: for LC50 (lethal concentration of α-cypermethrin to kill 50% of the population): 24 h
Procedure: as §1
To characterise the response of the 3 above pollen beetle populations against α-cypermethrin full dose response bioassays were carried out. The bioassay method used was based on the method recommended by the Insecticide Resistance Action Committee (IRAC method no 11). Briefly, glass vials (5.7 cm height and 2.3 cm diameter) were coated with 0.5 ml of a serial dilutions of insecticide, dissolved in acetone, (α-cypermethrin) and rolled upon a blood-roller (Luckham Multimix Major, Denley Instruments Ltd) at room temperature until the solutions had completely evaporated. Five to 20 non-sexed adult pollen beetles were placed into a vial for each replicate and the top loosely closed with a screw-cap. Three replicates were used at each insecticide concentration, 7 concentrations in all. Vials treated with acetone only were used as controls.
as §2

[5] = Table 2 (Example 13), 0.03 mM compound pre-incubated with E4 16 h at 4° C.
[6] = second 'TABLE 3' (Example 16), procedure as Example 13

Structure (SMILES): C#CCOc1ccc2c(c1)OCO2 [Example 1, 5-(propargyloxy)-benzo[1,3]dioxole, reference compound]
- Esterase protection (%) after pre-incubation with compound [1, 5]: 63.9%
- Esterase protection (%) after pre-incubation with compound [1, 6]: 63.90%

Structure (SMILES): C#CCOc1cc2c(cc1CCC)OCO2 [Example 4, 5-(propargyloxy)-6-propyl-benzo[1.3]dioxole]
- Reduction of esterase protection, comparison in words [1]: worse activity than the compound of Example 3
- Esterase protection (%) after pre-incubation with compound [1, 5]: 2.06%
- Esterase protection (%) after pre-incubation with compound [1, 6]: 2.06%

Structure (SMILES): C#CCOc1cc(OC)c(OC)cc1CCC [Example 7, 1-(propargyloxy)-6-propyl-3,4-dimethoxybenzene]
- Esterase protection (%) after pre-incubation with compound [1, 6]: 15.17%

Structure (SMILES): CC#CCOc1cc(OC)c(OC)cc1CCC [Example 8, 1-(but-2-ynyloxy)-6-propyl-3,4-dimethoxybenzene]
- Reduction of esterase protection, comparison in words [1]: better activity than compounds 4, 7, respectively
- Esterase protection (%) after pre-incubation with compound [1, 6]: 5.09%

Structure (SMILES): CC#CCOc1cc2c(cc1COCCOCCOCCCC)OCO2 [Example 9, 5-[2-(2-butoxyethoxy)-ethoxy]methyl-6-(but-2-ynyloxy)-benzo[1.3]dioxole]
- Esterase protection (%) after pre-incubation with compound [1, 5]: 2.96%

Structure (SMILES): CC#CCOc1cc2c(cc1CCC)CCO2 [Example 11, 6-(but-2-ynyloxy)-5-propyl-2,3-dihydrobenzofuran]
- Esterase protection (%) after pre-incubation with compound [1, 5]: −1.17%

Structure (SMILES): O=[N+]([O-])NC1=NCCN1Cc1ccc(Cl)nc1 [imidacloprid]
- RF, resistance factor (LC50 resistant / LC50 susceptible population) ([2]; aphid clone 4106A (susceptible reference)): 1
- LC50 (lethal concentration of imidacloprid to kill 50% of the population) ([2]; aphid clone 4106A (susceptible, S)): 1.6 ppm
- RF, resistance factor (LC50 resistant / LC50 susceptible population) ([2]; aphid clone 5191A versus 4106A): 56.5
- LC50 (lethal concentration of imidacloprid to kill 50% of the population) ([2]; aphid clone 5191A, FE4(R3) resistant): 90.5 ppm

Structure (SMILES): CC1(C)C(C=C(Cl)Cl)C1C(=O)OC(C#N)c1cccc(Oc2ccccc2)c1 (stereo not drawn) [α-cypermethrin]
- mortality at 0.3 ppm ([3]; 24 h, Lebork): 4.9%
- mortality at 0.3 ppm ([3]; 24 h, Rogalin): 2.78%
- mortality at 0.03 ppm ([3]; 24 h, UK population, 0.03 ppm α-cypermethrin alone): 13.6%
- mortality at 0.3 ppm ([3]; Rogalin and Lebork): ~5%
- LC50 (lethal concentration of α-cypermethrin to kill 50% of the population) ([4]; Lebork population (pyrethroid resistant, Poland)): 95.0 ηg/cm^2
- RF, resistance factor (LC50 resistant / LC50 susceptible population) ([4]; Lebork versus UK population): 44
- LC50 (lethal concentration of α-cypermethrin to kill 50% of the population) ([4]; Rogalin population (pyrethroid resistant, Poland)): 65.0 ηg/cm^2
- RF, resistance factor (LC50 resistant / LC50 susceptible population) ([4]; Rogalin versus UK population): 23 and 23.21
- LC50 (lethal concentration of α-cypermethrin to kill 50% of the population) ([4]; UK population (putative susceptible)): 2.80 ηg/cm^2
- RF, resistance factor (LC50 resistant / LC50 susceptible population) ([4]; UK population (reference)): 1
